US8946197B2, “Transglutaminase TG2 inhibitors, pharmaceutical compositions, and methods of use thereof” (CHDI Foundation, Inc., priority 2009, dated 2015)
Values joined by “and” are separate entries in the source; they are usually repeats but may differ in a detail not shown here. Equal values may be shown once.

Target: T1, human TG2 (Homo sapiens, UniProt P21980)
T1 sequence (P21980 1-687): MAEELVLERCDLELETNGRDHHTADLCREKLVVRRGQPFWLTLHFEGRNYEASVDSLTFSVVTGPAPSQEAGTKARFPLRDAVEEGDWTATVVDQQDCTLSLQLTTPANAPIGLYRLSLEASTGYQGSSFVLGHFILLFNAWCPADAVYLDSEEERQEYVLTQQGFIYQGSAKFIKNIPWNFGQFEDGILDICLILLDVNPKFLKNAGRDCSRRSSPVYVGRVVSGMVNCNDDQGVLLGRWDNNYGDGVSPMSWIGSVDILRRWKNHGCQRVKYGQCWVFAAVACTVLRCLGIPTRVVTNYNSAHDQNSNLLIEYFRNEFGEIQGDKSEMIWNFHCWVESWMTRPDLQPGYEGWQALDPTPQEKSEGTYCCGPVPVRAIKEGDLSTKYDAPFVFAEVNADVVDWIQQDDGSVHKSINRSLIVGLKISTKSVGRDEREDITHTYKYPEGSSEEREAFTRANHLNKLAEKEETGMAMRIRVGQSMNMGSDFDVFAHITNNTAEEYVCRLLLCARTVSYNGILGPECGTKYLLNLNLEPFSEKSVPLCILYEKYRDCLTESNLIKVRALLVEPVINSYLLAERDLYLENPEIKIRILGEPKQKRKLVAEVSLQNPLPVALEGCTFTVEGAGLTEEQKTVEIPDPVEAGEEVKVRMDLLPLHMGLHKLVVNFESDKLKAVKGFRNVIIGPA
Assay: fluorescent screening assay for human TG2
Type: biochemical
Settings: 20 nM TG2, 8 μM N,N-dimethylated Casein, 16 μM KxD, pH 7.4, 37° C
Protocol: (§1) The fluorescent screening assay for human TG2 was performed as described herein: Assay conditions were 20 nM TG2, 8 μM N,N-dimethylated Casein (NMC) and 16 μM K×D (used for all transglutaminase assays) in 25 mM Hepes, pH 7.4, 250 mM NaCl, 2 mM MgCl2, 0.5 mM CaCl2, 0.2 mM DTT, 0.05% Pluronic F-127 at 37° C. A time point was taken with a microplate reader (Safire or Ultra, Tecan; ex: 350 nm, em: 535 nm) every 3 minutes for up to 2 hours and the initial linear reaction progress was used to determine the reaction velocity as a measure for enzyme activity. Assay conditions were identical for human TG6 and similar for human TG1 and mouse TG2 apart from enzyme concentration (mTG2 at 5 nM; TG1 at 10 nM) and CaCl2 concentration (0.2 mM for mTG2; 0.05 mM for TG1). Factor XIIIa was activated using 0.1 μg/μl thrombin (Sigma) in 35 mM Tris pH 8.0 for 20 min at 30° C. and the transamidation reaction was performed with 20 nM Factor XIIIa in 50 mM Tris pH 8.0, 1.25 mM CaCl2, 0.05% Pluronic, 0.2 mM DTT. TG3 was activated with 0.02 μg/μl thrombin under the same conditions as Factor XIIIa and assay conditions were 10 nM TG3 in 50 mM Hepes, pH 8, 20 mM CaCl2, 0.2 mM DTT, 0.05% Pluronic F-127.
as §1, with “A” for “The”

| IC50 | SMILES |
| --- | --- |
| < 100 nM and 100 to 1000 nM | C=CC(=O)Nc1ccc(S(=O)(=O)N2CCC(C(=O)N(C)c3ccccc3)CC2)cc1 [1-(4-Acryloylamino-benzenesulfonyl)-piperidine-4-carboxylic acid methyl-phenyl-amide] |
| 100 to 1000 nM and < 100 nM | C=CC(=O)Nc1ccc(S(=O)(=O)N2CCN(C(=O)OC(C)(C)C)CC2)c(Cl)c1 [4-(4-Acryloylamino-2-chloro-benzenesulfonyl)-piperazine-1-carboxylic acid tert-butyl ester] |
| 1000 to 25000 nM | C=CC(=O)Nc1ccc(S(=O)(=O)N2CCN(C(=O)OC(C)(C)C)CC2)c(OC)c1 [4-(4-Acryloylamino-2-methoxy-benzenesulfonyl)-piperazine-1-carboxylic acid tert-butyl ester] |
| 1000 to 25000 nM | C=CC(=O)Nc1ccc(S(=O)(=O)N2CCN(C(=O)OC(C)(C)C)CC2)c(C)c1 [4-(4-Acryloylamino-2-methyl-benzenesulfonyl)-piperazine-1-carboxylic acid tert-butyl ester] |
| 1000 to 25000 nM | C=CC(=O)Nc1ccc(S(=O)(=O)N2CCN(C(=O)OCc3ccccc3)CC2)cc1F [4-(4-Acryloylamino-3-fluoro-benzenesulfonyl)-piperazine-1-carboxylic acid benzyl ester] |
| 100 to 1000 nM and < 100 nM | C=CC(=O)Nc1ccc(S(=O)(=O)N2CCN(C(=O)OCc3ccccc3)C(CC(=O)NC3C4CC5CC(C4)CC3C5)C2)cc1 (centres unmarked) [4-(4-Acryloylamino-benzenesulfonyl)-2-(adamantan-2-ylcarbamoylmethyl)-piperazine-1-carboxylic acid benzyl ester] |
| 100 to 1000 nM and < 100 nM | C=CC(=O)Nc1ccc(S(=O)(=O)N2CCN(C(=O)OC(C)(C)C)C(c3ccco3)C2)cc1 (centres unmarked) [4-(4-Acryloylamino-benzenesulfonyl)-2-furan-2-yl-piperazine-1-carboxylic acid tert-butyl ester] |
| 100 to 1000 nM and < 100 nM | C=CC(=O)Nc1ccc(S(=O)(=O)N2CCN(C(=O)OC(C)(C)C)[C@@H](C(C)C)C2)cc1 [4-(4-Acryloylamino-benzenesulfonyl)-2-isopropyl-piperazine-1-carboxylic acid tert-butyl ester] |
| 100 to 1000 nM and < 100 nM | C=CC(=O)Nc1ccc(S(=O)(=O)N2CCN(C(=O)OCc3ccccc3)C(CC(=O)OC)C2)cc1 (centres unmarked) [4-(4-Acryloylamino-benzenesulfonyl)-2-methoxycarbonylmethyl-piperazine-1-carboxylic acid benzyl ester] |
| 100 to 1000 nM and < 100 nM | C=CC(=O)Nc1ccc(S(=O)(=O)N2CCN(C(=O)OCc3ccccc3)[C@@H](C)C2)cc1 [4-(4-Acryloylamino-benzenesulfonyl)-2-methyl-piperazine-1-carboxylic acid benzyl ester] |
| 100 to 1000 nM and < 100 nM | C=CC(=O)Nc1ccc(S(=O)(=O)N2CCN(C(=O)OCc3cccc(F)c3F)CC2)cc1 [4-(4-Acryloylamino-benzenesulfonyl)-piperazine-1-carboxylic acid 2,3-difluoro-benzyl ester] |
| 100 to 1000 nM and < 100 nM | C=CC(=O)Nc1ccc(S(=O)(=O)N2CCN(C(=O)OCc3cccc(OC)c3OC)CC2)cc1 [4-(4-Acryloylamino-benzenesulfonyl)-piperazine-1-carboxylic acid 2,3-dimethoxy-benzyl ester] |
| 100 to 1000 nM and < 100 nM | C=CC(=O)Nc1ccc(S(=O)(=O)N2CCN(C(=O)OCc3c(F)cccc3F)CC2)cc1 [4-(4-Acryloylamino-benzenesulfonyl)-piperazine-1-carboxylic acid 2,6-difluoro-benzyl ester] |
| 100 to 1000 nM and < 100 nM | C=CC(=O)Nc1ccc(S(=O)(=O)N2CCN(C(=O)OCc3ccccc3Cl)CC2)cc1 [4-(4-Acryloylamino-benzenesulfonyl)-piperazine-1-carboxylic acid 2-chloro-benzyl ester] |
| 100 to 1000 nM and < 100 nM | C=CC(=O)Nc1ccc(S(=O)(=O)N2CCN(C(=O)OCc3ccccc3C)CC2)cc1 [4-(4-Acryloylamino-benzenesulfonyl)-piperazine-1-carboxylic acid 2-methyl-benzyl ester] |
| 100 to 1000 nM and < 100 nM | C=CC(=O)Nc1ccc(S(=O)(=O)N2CCN(C(=O)OCc3cc(F)cc(F)c3)CC2)cc1 [4-(4-Acryloylamino-benzenesulfonyl)-piperazine-1-carboxylic acid 3,5-difluoro-benzyl ester] |
| 100 to 1000 nM and < 100 nM | C=CC(=O)Nc1ccc(S(=O)(=O)N2CCN(C(=O)OCc3cccc(Cl)c3)CC2)cc1 [4-(4-Acryloylamino-benzenesulfonyl)-piperazine-1-carboxylic acid 3-chloro-benzyl ester] |
| 100 to 1000 nM and < 100 nM | C=CC(=O)Nc1ccc(S(=O)(=O)N2CCN(C(=O)OCc3cccc(F)c3)CC2)cc1 [4-(4-Acryloylamino-benzenesulfonyl)-piperazine-1-carboxylic acid 3-fluoro-benzyl ester] |
| 1000 to 25000 nM | C=CC(=O)Nc1ccc(S(=O)(=O)N2CCN(C(=O)OCc3ccc(CCCC)cc3)CC2)cc1 [4-(4-Acryloylamino-benzenesulfonyl)-piperazine-1-carboxylic acid 4-butyl-benzyl ester] |
| < 100 nM and 100 to 1000 nM | C=CC(=O)Nc1ccc(S(=O)(=O)N2CCN(C(=O)OCc3ccc(F)cc3)CC2)cc1 [4-(4-Acryloylamino-benzenesulfonyl)-piperazine-1-carboxylic acid 4-fluoro-benzyl ester] |
| 100 to 1000 nM and < 100 nM | C=CC(=O)Nc1ccc(S(=O)(=O)N2CCN(C(=O)OCc3ccc(C)cc3)CC2)cc1 [4-(4-Acryloylamino-benzenesulfonyl)-piperazine-1-carboxylic acid 4-methyl-benzyl ester] |
| 1000 to 25000 nM | C=CC(=O)Nc1ccc(S(=O)(=O)N2CCN(C(=O)OCc3ccc(C(C)(C)C)cc3)CC2)cc1 [4-(4-Acryloylamino-benzenesulfonyl)-piperazine-1-carboxylic acid 4-tert-butyl-benzyl ester] |
| 100 to 1000 nM and < 100 nM | C=CC(=O)Nc1ccc(S(=O)(=O)N2CCN(C(=O)NC3C4CC5CC(C4)CC3C5)CC2)cc1 (centres unmarked) [4-(4-Acryloylamino-benzenesulfonyl)-piperazine-1-carboxylic acid adamantan-2-ylamide] |
| 100 to 1000 nM and < 100 nM | C=CC(=O)Nc1ccc(S(=O)(=O)N2CCN(C(=O)NCc3ccccc3)CC2)cc1 [4-(4-Acryloylamino-benzenesulfonyl)-piperazine-1-carboxylic acid benzylamide] |
| 100 to 1000 nM and < 100 nM | C=CC(=O)Nc1ccc(S(=O)(=O)N2CCN(C(=O)OC3CCCC3)CC2)cc1 [4-(4-Acryloylamino-benzenesulfonyl)-piperazine-1-carboxylic acid cyclopentyl ester] |
| 100 to 1000 nM and < 100 nM | C=CC(=O)Nc1ccc(S(=O)(=O)N2CCN(C(=O)N(C)C)CC2)cc1 [4-(4-Acryloylamino-benzenesulfonyl)-piperazine-1-carboxylic acid dimethylamide] |
| 100 to 1000 nM and < 100 nM | C=CC(=O)Nc1ccc(S(=O)(=O)N2CCN(C(=O)OCC)CC2)cc1 [4-(4-Acryloylamino-benzenesulfonyl)-piperazine-1-carboxylic acid ethyl ester] |
| 100 to 1000 nM and < 100 nM | C=CC(=O)Nc1ccc(S(=O)(=O)N2CCN(C(=O)OCC(C)C)CC2)cc1 [4-(4-Acryloylamino-benzenesulfonyl)-piperazine-1-carboxylic acid isobutyl ester] |
| 100 to 1000 nM and < 100 nM | C=CC(=O)Nc1ccc(S(=O)(=O)N2CCN(C(=O)OC(C)C)CC2)cc1 [4-(4-Acryloylamino-benzenesulfonyl)-piperazine-1-carboxylic acid isopropyl ester] |
